According to patent US9451775B2, “Heterocyclic compounds as pesticides” (Bayer Intellectual Property GmbH, priority 2008, dated 2016):

Assays:
[1] = test system: green peach aphid (Myzus persicae); assay: Myzus test (spray treatment); type: in vivo; settings: foliar, application rate of 500 g/ha, sprayed Chinese cabbage leaf discs, read-out: activity (effect in %, aphids killed)
Experimental: Myzus Test (Spray Treatment)
• Solvents: 78.0 parts by weight of acetone • 1.5 parts by weight of dimethylformamide • Emulsifier: 0.5 part by weight of alkylaryl polyglycol ether
To produce a suitable preparation of active compound, 1 part by weight of active compound is mixed with the stated amounts of solvents and emulsifier, and the concentrate is diluted with emulsifier-containing water to the desired concentration.
Discs of leaves of Chinese cabbage (Brassica pekinensis) which are heavily infested by all stages of the green peach aphid (Myzus persicae) are sprayed with an active compound preparation of the desired concentration.
After the desired period of time, the effect in % is determined. 100% means that all aphids have been killed; 0% means that none of the aphids have been killed.

[2] = logP determination by HPLC (formic acid method); type: physicochemical; settings: reversed-phase HPLC column (C18), pH 3.4, HPLC on reversed-phase column (C18), acidic range (pH 3.4), 55° C.; read-out: logP (HCOOH)
In short: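 Reversed-phase C18 HPLC at 55 °C, pH 3.4, with a 4.25 min gradient from 10% to 95% acetonitrile (formic acid-modified water/acetonitrile phases). logP was derived from retention time by linear interpolation between unbranched alkan-2-ones (C3-C16) of known logP.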

chromatographic logP [2]	Structure (SMILES)	pest or weed control at 500 g/ha [1] [%]
2.2	CCOCCNC(=O)n1ccc(-c2sc(-c3cccnc3)nc2C)n1 [compound 115]	≥ 80
2.61	CCC(COC)NC(=O)n1ccc(-c2sc(-c3cccnc3)nc2C)n1 (stereo not drawn) [compound 116]	≥ 80
3.18	Cc1nc(-c2cccnc2)sc1-c1ccn(C(=O)NC(C)COC(C)C)n1 (stereo not drawn) [compound 117]	≥ 80
2.69	CCOCC(C)NC(=O)n1ccc(-c2sc(-c3cccnc3)nc2C)n1 (stereo not drawn) [compound 118]	≥ 80
3.23	Cc1nc(-c2cccnc2)sc1-c1ccn(C(=O)NC(C)(C)C)n1 [compound 119]	≥ 80
2.89	Cc1nc(-c2cccnc2)sc1-c1ccn(C(=O)NCC(C)C)n1 [compound 120]	≥ 80
2.05	CCNC(=O)n1ccc(-c2sc(-c3cccnc3)nc2C)n1 [compound 121]	≥ 80
3.56	Cc1nc(-c2cccnc2)sc1-c1ccn(C(=O)NC2CCCCC2)n1 [compound 122]	≥ 80
2.46	CCOCCCNC(=O)n1ccc(-c2sc(-c3cccnc3)nc2C)n1 [compound 123]	≥ 80
3.09	Cc1nc(-c2cccnc2)sc1-c1ccn(C(=O)NC2CCCC2)n1 [compound 124]	≥ 80
2.08	Cc1nc(-c2cccnc2)sc1-c1ccn(C(=O)NC2CC2)n1 [compound 125]	≥ 80

Further lines, the compound ahead of its results:

Structure (SMILES)	chromatographic logP [2]	pest or weed control at 500 g/ha [1] [%]
Cc1nc(-c2cccnc2)sc1-c1ccc(C(F)(F)F)cn1 [compound 99]	3.14	≥ 80
COC(=O)c1oc(-c2sc(-c3cccnc3)nc2C)nc1C [compound 100]	2.55	≥ 80
Cc1nc(-c2cccnc2)sc1-c1cccc(C2=NOCCO2)c1 [compound 101]	2.42	≥ 80
Cc1nc(-c2cccnc2)sc1-c1nnc(C(F)(F)F)s1 [compound 102]	2.85	≥ 80
Cc1nc(-c2cccnc2)sc1-c1ccn(C(=O)NC(C)C)n1 [compound 103]	2.55	≥ 80
Cc1nc(-c2cccnc2)sc1-c1ccn(C(=S)NC2CC2)n1 [compound 104]	3.23	≥ 80
Cc1nc(-c2cccnc2)sc1-c1ccnc(CC2CC2)n1 [compound 105]	2.69	≥ 80
Cc1nc(-c2cccnc2)sc1-c1ccn(-c2nnc(C3CCC3)s2)n1 [compound 106]	3.42	≥ 80
Cc1nc(-c2cccnc2)sc1-c1ccn(-c2nnc(C3CCCC3)s2)n1 [compound 107]	3.85	≥ 80
COc1nc(-n2ccc(-c3sc(-c4cccnc4)nc3C)n2)nc2c1CCC2 [compound 108]	3.18	≥ 80
Cc1nc(-c2cccnc2)sc1-c1ccnc(C(F)(F)F)n1 [compound 109]	2.72	≥ 80
Cc1nc(-c2cccnc2)sc1-c1ccn(-c2nnc(C(F)Cl)s2)n1 (stereo not drawn) [compound 110]	3.24	≥ 80
Cc1nc(-c2cccnc2)sc1-c1cc(C(F)(F)F)ncn1 [compound 111]	2.8	≥ 80
COC(=O)c1nc(-c2sc(-c3cccnc3)nc2C)ccc1Cl [compound 112]	2.64	≥ 80
COCC(C)NC(=O)n1ccc(-c2sc(-c3cccnc3)nc2C)n1 (stereo not drawn) [compound 113]	2.23	≥ 80
CCCOCC(C)NC(=O)n1ccc(-c2sc(-c3cccnc3)nc2C)n1 (stereo not drawn) [compound 114]	3.27	≥ 80
